# Source: PubChem BioAssay (NCI)
# Several values for one entry are separate records, joined by “and”; a condition that tells them apart may be missing. Equal entries are not always repeated.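 Briefly, cells in 96-well plates were exposed to five compound concentrations for 48 h, and endpoints were estimated by linear interpolation. Definition used: TGI = concentration required for complete inhibition of growth.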
# Assays:
# Assay in all cases: NCI-60 cell line screen, 48 h
# [1] = tested on: NCI-H460 lung
# [2] = tested on: SF-295 CNS
# [3] = tested on: A498 renal
# [4] = tested on: HCT-15 colon
# [5] = tested on: SR leukemia
# [6] = tested on: KM20L2 colon
# [7] = tested on: M14 melanoma
# [8] = tested on: COLO 205 colon
# [9] = tested on: SF-268 CNS
# [10] = tested on: UACC-62 melanoma
# [11] = tested on: LOX IMVI melanoma
# [12] = tested on: SF-539 CNS
# [13] = tested on: HT29 colon
# [14] = tested on: OVCAR-5 ovarian
# [15] = tested on: SNB-75 CNS
# [16] = tested on: HL-60(TB) leukemia
# [17] = tested on: DMS 114 small cell lung
# [18] = tested on: SNB-19 CNS
# [19] = tested on: HOP-62 NSCLC
# [20] = tested on: MALME-3M melanoma
# [21] = tested on: EKVX NSCLC
# [22] = tested on: UACC-257 melanoma
# [23] = tested on: 786-0 renal
# [24] = tested on: K-562 leukemia
# [25] = tested on: CCRF-CEM leukemia
# [26] = tested on: A549 NSCLC
# [27] = tested on: SN12C renal
# [28] = tested on: ACHN renal
# [29] = tested on: LXFL 529 NSCLC
# [30] = tested on: DMS 273 small cell lung
# [31] = tested on: KM12 colon
# [32] = tested on: MOLT-4 leukemia
# [33] = tested on: SK-MEL-2 melanoma
# [34] = tested on: HCT-116 colon
# [35] = tested on: SK-OV-3 ovarian
# [36] = tested on: NCI-H226 lung
# [37] = tested on: UO-31 renal
# [38] = tested on: OVCAR-4 ovarian
# [39] = tested on: CAKI-1 renal
# [40] = tested on: RPMI-8226 leukemia
# [41] = tested on: NCI-H522 lung
# [42] = tested on: OVCAR-3 ovarian
# [43] = tested on: SK-MEL-5 melanoma
# [44] = tested on: OVCAR-8 ovarian
# [45] = tested on: IGROV1 ovarian
# [46] = tested on: NCI-H23 lung
# [47] = tested on: DLD-1 colon
# [48] = tested on: HOP-18 NSCLC
# [49] = tested on: SK-MEL-28 melanoma
# [50] = tested on: HOP-92 NSCLC
# [51] = tested on: HCC-2998 colon
# [52] = tested on: M19-MEL melanoma
# [53] = tested on: RXF 393 renal
# [54] = tested on: SW-620 colon
# [55] = tested on: TK-10 renal
# [56] = tested on: U251 CNS
structure (smiles),measurement,setting,value
CCC1CC(C)=CCN1S(=O)(=O)c1ccc(C)cc1 (stereo not given),TGI,[1],91.7 µM
same,TGI,[2],> 100 µM
same,TGI,[3],> 100 µM
same,TGI,[4],83.7 µM
same,TGI,[5],32.7 µM
same,TGI,[6],36 µM
same,TGI,[7],57.5 µM
same,TGI,[8],38.4 µM
same,TGI,[9],62.1 µM
same,TGI,[10],57.8 µM
same,TGI,[11],33.6 µM
same,TGI,[12],39.8 µM
same,TGI,[13],39.3 µM
same,TGI,[14],> 100 µM
same,TGI,[15],50.6 µM
same,TGI,[16],18 µM
same,TGI,[17],53.7 µM
same,TGI,[18],> 100 µM
same,TGI,[19],84.6 µM
same,TGI,[20],61.7 µM
same,TGI,[21],> 100 µM
same,TGI,[22],> 100 µM
same,TGI,[23],> 100 µM
same,TGI,[24],> 100 µM
same,TGI,[25],75.7 µM
same,TGI,[26],> 100 µM
same,TGI,[27],24.3 µM
same,TGI,[28],> 100 µM
same,TGI,[29],> 100 µM
same,TGI,[30],67.9 µM
same,TGI,[31],70.8 µM
same,TGI,[32],83.6 µM
same,TGI,[33],27.2 µM
same,TGI,[34],> 100 µM
same,TGI,[35],> 100 µM
same,TGI,[36],80.7 µM
same,TGI,[37],66.6 µM
same,TGI,[38],> 100 µM
same,TGI,[39],> 100 µM
same,TGI,[40],20.5 µM
same,TGI,[41],46.4 µM
same,TGI,[42],44.9 µM
same,TGI,[43],26.8 µM
same,TGI,[44],> 100 µM
NC(=O)CCC(NC(=O)Cc1ccccc1)C(=O)O (stereo not given) (tested in a mixture with another compound),TGI,[2],> 8130 µM
same,TGI,[3],> 8130 µM
same,TGI,[4],> 2470 µM
same,TGI,[5],> 8130 µM
same,TGI,[6],> 8130 µM
same,TGI,[45],> 8130 µM
same,TGI,[7],> 8130 µM
same,TGI,[46],> 8130 µM
same,TGI,[47],> 8130 µM
same,TGI,[8],> 8130 µM
same,TGI,[48],> 8130 µM
same,TGI,[9],> 8130 µM
same,TGI,[49],> 8130 µM
same,TGI,[10],> 8130 µM
same,TGI,[50],> 8130 µM
same,TGI,[12],> 8130 µM
same,TGI,[13],> 8130 µM
same,TGI,[51],> 8130 µM
same,TGI,[14],> 8130 µM
same,TGI,[15],1680 µM and > 8130 µM
same,TGI,[16],> 8130 µM
same,TGI,[17],> 8130 µM
same,TGI,[18],> 8130 µM
same,TGI,[52],> 8130 µM
same,TGI,[53],2030 µM and > 8130 µM
same,TGI,[19],> 8130 µM
same,TGI,[54],> 8130 µM
same,TGI,[20],> 8130 µM
same,TGI,[21],> 8130 µM
same,TGI,[23],> 8130 µM
same,TGI,[24],> 8130 µM
same,TGI,[25],> 8130 µM
same,TGI,[26],> 8130 µM
same,TGI,[27],> 8130 µM
same,TGI,[29],> 8130 µM
same,TGI,[30],> 2470 µM
same,TGI,[31],> 8130 µM
same,TGI,[32],> 8130 µM
same,TGI,[55],> 8130 µM
same,TGI,[33],> 8130 µM
same,TGI,[34],> 8130 µM
same,TGI,[35],> 8130 µM
same,TGI,[56],> 8130 µM
same,TGI,[37],2100 µM and > 8130 µM
same,TGI,[38],> 8130 µM
same,TGI,[39],> 8130 µM
same,TGI,[40],> 8130 µM
same,TGI,[41],> 8130 µM
same,TGI,[42],> 8130 µM
same,TGI,[43],> 8130 µM
same,TGI,[44],> 8130 µM
